# Experiments:
# Assay in all cases: KINOMEscan competition binding
# Details in all cases: compound 1.0 µM
# [1] = tested on: PIK3CA (human), P42336 [E545A]
# RPS6KA6 KD2 (human) = RPS6KA6 KD2 (human) (UniProt Q9UK32)
# [2] = tested on: ABL1 (human), P00519 [Y253F]
# DAPK2 (human) = DAPK2 (human) (UniProt Q9UIK4)
# TEK (human) = TEK (human) (UniProt Q02763)
# PAK6 (human) = PAK6 (human) (UniProt Q9NQU5)
# TNK1 (human) = TNK1 (human) (UniProt Q13470)
# IKBKE (human) = IKBKE (human) (UniProt Q14164)
# Chain of IKBKE (human) (Q14164 whole entry, looked up): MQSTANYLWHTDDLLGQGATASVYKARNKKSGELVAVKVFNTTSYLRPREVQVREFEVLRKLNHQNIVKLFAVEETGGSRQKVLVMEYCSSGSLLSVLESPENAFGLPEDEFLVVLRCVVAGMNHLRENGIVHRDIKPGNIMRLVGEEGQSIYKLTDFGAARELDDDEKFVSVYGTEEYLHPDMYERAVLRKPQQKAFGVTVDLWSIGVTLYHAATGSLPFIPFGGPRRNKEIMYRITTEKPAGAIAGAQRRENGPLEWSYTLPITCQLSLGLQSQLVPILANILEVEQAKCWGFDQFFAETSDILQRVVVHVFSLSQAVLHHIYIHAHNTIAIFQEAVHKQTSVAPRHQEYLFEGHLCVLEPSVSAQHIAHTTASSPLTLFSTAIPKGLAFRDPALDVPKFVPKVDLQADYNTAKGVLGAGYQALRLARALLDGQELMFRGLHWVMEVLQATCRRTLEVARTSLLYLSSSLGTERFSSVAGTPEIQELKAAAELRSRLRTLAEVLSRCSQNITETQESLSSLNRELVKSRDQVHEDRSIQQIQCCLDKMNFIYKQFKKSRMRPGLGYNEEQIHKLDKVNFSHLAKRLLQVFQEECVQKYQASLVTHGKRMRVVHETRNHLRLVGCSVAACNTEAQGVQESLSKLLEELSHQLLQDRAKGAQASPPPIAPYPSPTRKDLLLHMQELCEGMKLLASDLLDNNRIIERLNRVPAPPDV
# CLK1 (human) = CLK1 (human) (UniProt P49759)
# DYRK1A (human) = DYRK1A (human) (UniProt Q13627)
# ULK2 (human) = ULK2 (human) (UniProt Q8IYT8)
# PIK3CG (human) = PIK3CG (human) (UniProt P48736)
# CLK4 (human) = CLK4 (human) (UniProt Q9HAZ1)
# MAPK1 (human) = MAPK1 (human) (UniProt P28482)
# Chain of MAPK1 (human) (P28482 whole entry, looked up): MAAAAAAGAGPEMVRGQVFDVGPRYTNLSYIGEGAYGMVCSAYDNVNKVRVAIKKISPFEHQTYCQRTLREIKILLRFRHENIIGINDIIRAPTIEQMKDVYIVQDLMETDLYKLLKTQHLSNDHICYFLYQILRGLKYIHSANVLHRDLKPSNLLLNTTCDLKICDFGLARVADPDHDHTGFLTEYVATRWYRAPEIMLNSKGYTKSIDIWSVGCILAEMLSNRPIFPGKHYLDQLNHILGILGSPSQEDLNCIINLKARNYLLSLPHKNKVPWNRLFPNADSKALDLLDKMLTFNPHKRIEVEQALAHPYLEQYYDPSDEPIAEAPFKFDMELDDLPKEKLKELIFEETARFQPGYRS
# FES (human) = FES (human) (UniProt P07332)
# NEK3 (human) = NEK3 (human) (UniProt P51956)
# TEC (human) = TEC (human) (UniProt P42680)
# ROS1 (human) = ROS1 (human) (UniProt P08922)
# STK38 (human) = STK38 (human) (UniProt Q15208)
# TTK (human) = TTK (human) (UniProt P33981)
# FLT1 (human) = FLT1 (human) (UniProt P17948)
# EPHB1 (human) = EPHB1 (human) (UniProt P54762)
# CDK9 (human) = CDK9 (human) (UniProt P50750)
# CDK7 (human) = CDK7 (human) (UniProt P50613)
# Chain of CDK7 (human) (P50613 whole entry, looked up): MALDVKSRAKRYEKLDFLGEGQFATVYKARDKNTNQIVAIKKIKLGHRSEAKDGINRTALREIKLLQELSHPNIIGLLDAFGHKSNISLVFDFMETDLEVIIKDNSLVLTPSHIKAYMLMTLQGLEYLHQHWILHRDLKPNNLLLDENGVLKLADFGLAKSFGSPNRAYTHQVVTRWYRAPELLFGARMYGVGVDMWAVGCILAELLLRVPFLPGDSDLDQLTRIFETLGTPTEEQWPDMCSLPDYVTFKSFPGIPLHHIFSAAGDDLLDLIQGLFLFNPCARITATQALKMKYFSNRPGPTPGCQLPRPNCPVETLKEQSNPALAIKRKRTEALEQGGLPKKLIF
# MAP3K13 (human) = MAP3K13 (human) (UniProt O43283)
# MAP3K2 (human) = MAP3K2 (human) (UniProt Q9Y2U5)
# [3] = tested on: EGFR (human), P00533 [T790M/L858R]
# DYRK1B (human) = DYRK1B (human) (UniProt Q9Y463)
# [4] = tested on: KIT (human), P10721 [D816V]
# Chain of KIT (human), P10721 [D816V] (P10721 whole entry D816V, looked up): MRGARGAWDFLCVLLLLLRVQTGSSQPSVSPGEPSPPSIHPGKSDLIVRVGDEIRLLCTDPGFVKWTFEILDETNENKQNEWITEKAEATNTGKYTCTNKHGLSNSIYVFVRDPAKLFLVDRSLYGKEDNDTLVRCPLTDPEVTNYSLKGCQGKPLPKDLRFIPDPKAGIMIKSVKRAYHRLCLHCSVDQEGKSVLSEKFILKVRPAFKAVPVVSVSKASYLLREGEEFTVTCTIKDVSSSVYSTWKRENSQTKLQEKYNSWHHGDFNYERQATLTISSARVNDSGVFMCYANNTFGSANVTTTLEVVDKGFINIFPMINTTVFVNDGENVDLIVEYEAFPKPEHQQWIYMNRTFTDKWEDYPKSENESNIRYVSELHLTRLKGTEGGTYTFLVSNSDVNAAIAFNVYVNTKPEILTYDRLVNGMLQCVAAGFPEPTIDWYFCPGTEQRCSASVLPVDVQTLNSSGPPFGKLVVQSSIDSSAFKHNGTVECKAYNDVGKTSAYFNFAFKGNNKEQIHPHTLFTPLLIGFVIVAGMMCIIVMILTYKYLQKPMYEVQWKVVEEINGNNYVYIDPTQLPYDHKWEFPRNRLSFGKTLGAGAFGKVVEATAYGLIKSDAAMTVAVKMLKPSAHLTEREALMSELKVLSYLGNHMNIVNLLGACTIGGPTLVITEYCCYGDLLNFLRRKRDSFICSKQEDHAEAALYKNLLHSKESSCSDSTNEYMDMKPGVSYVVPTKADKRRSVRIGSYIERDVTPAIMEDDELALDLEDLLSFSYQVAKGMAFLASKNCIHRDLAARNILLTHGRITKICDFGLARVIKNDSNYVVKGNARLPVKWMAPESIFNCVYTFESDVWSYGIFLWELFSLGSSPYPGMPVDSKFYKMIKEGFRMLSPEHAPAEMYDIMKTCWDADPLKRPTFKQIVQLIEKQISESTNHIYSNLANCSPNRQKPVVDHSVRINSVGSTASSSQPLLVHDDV
# STK17B (human) = STK17B (human) (UniProt O94768)
# Chain of STK17B (human) (O94768 whole entry, looked up): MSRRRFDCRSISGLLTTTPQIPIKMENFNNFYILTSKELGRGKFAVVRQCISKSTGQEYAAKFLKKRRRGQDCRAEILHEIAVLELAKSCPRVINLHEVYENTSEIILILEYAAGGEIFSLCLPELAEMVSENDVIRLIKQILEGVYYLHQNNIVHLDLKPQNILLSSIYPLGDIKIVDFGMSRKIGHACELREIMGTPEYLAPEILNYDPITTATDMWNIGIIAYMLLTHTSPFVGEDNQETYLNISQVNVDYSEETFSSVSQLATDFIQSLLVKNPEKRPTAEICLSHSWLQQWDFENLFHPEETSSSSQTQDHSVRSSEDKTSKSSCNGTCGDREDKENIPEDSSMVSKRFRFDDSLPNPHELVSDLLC
# [5] = tested on: EGFR (human), P00533 [L858R]
# MAP3K7 (human) = MAP3K7 (human) (UniProt O43318)
# Chain of MAP3K7 (human) (O43318 whole entry, looked up): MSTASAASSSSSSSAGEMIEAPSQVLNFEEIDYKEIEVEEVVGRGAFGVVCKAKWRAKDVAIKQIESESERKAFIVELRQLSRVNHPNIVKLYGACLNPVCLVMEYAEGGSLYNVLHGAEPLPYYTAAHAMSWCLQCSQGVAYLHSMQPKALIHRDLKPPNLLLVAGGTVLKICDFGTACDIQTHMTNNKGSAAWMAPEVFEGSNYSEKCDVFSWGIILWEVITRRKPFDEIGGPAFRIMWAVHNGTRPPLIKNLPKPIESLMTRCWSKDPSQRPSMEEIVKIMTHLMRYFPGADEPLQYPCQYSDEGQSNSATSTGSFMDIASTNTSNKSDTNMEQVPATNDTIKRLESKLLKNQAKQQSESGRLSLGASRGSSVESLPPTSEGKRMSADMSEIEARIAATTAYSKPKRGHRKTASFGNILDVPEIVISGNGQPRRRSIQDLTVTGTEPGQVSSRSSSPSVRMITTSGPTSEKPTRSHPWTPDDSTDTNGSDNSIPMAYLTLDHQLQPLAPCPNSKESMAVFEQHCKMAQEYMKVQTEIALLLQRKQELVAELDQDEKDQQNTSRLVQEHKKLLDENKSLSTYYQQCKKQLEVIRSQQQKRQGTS
# MAPK12 (human) = MAPK12 (human) (UniProt P53778)
# [6] = tested on: EGFR (human), P00533 [P753S; 747-752 del]
# MAP2K5 (human) = MAP2K5 (human) (UniProt Q13163)
# TYRO3 (human) = TYRO3 (human) (UniProt Q06418)
# NEK1 (human) = NEK1 (human) (UniProt Q96PY6)
# MAP4K2 (human) = MAP4K2 (human) (UniProt Q12851)
# Chain of MAP4K2 (human) (Q12851 whole entry, looked up): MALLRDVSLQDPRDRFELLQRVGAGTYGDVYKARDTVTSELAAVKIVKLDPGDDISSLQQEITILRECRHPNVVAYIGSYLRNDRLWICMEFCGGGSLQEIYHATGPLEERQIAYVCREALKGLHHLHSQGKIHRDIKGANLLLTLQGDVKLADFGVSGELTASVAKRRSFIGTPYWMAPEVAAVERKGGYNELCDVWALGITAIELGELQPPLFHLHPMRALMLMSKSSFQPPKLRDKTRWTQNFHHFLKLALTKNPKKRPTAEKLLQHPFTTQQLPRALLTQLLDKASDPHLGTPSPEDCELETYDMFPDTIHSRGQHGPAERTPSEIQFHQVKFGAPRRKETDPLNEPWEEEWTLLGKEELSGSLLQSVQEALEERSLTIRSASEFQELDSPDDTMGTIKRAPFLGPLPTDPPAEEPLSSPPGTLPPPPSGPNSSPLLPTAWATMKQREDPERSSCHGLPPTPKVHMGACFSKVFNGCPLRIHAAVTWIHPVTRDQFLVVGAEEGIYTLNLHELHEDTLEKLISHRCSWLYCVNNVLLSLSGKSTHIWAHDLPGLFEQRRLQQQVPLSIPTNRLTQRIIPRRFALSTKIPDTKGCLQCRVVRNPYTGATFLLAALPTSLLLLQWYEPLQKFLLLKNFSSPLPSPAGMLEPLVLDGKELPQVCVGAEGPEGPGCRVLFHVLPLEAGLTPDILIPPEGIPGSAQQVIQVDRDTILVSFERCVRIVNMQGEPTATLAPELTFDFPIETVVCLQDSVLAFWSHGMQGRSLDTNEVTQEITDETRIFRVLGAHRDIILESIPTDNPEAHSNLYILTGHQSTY
# EPHA3 (human) = EPHA3 (human) (UniProt P29320)
# Chain of RPS6KA6 KD2 (human) (Q9UK32 whole entry, looked up): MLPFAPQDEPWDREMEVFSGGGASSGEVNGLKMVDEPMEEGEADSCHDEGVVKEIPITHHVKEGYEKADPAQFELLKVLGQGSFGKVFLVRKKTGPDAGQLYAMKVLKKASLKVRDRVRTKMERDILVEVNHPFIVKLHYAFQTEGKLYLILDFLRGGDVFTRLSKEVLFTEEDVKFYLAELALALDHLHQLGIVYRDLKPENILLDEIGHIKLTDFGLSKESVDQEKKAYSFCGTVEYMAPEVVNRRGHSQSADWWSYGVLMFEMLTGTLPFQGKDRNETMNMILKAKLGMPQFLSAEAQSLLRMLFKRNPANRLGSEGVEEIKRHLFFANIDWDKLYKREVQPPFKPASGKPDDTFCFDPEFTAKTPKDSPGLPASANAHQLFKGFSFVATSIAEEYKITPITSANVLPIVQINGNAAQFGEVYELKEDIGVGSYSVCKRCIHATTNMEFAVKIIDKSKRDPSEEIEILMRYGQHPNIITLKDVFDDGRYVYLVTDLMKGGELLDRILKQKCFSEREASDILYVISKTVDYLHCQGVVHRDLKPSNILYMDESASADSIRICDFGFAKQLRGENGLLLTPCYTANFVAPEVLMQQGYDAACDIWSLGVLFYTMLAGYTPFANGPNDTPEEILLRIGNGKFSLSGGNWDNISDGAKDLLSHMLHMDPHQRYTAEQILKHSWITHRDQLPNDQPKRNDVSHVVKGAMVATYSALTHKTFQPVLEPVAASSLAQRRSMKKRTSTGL
structure (smiles),measurement,setting,value
CNc1nc(Nc2ccc(C(=O)N3CCOCC3)cc2OC)ncc1Cl,"kinase still bound, per cent of control",[1],68%
same,"kinase still bound, per cent of control",RPS6KA6 KD2 (human),89%
same,"kinase still bound, per cent of control",[2],69%
same,"kinase still bound, per cent of control",DAPK2 (human),66%
same,"kinase still bound, per cent of control",TEK (human),100%
same,"kinase still bound, per cent of control",PAK6 (human),100%
same,"kinase still bound, per cent of control",TNK1 (human),66%
same,"kinase still bound, per cent of control",IKBKE (human),86%
same,"kinase still bound, per cent of control",CLK1 (human),100%
same,"kinase still bound, per cent of control",DYRK1A (human),100%
same,"kinase still bound, per cent of control",ULK2 (human),85%
same,"kinase still bound, per cent of control",PIK3CG (human),78%
same,"kinase still bound, per cent of control",CLK4 (human),100%
same,"kinase still bound, per cent of control",MAPK1 (human),100%
same,"kinase still bound, per cent of control",FES (human),100%
same,"kinase still bound, per cent of control",NEK3 (human),100%
same,"kinase still bound, per cent of control",TEC (human),100%
same,"kinase still bound, per cent of control",ROS1 (human),100%
same,"kinase still bound, per cent of control",STK38 (human),100%
same,"kinase still bound, per cent of control",TTK (human),20%
same,"kinase still bound, per cent of control",FLT1 (human),100%
same,"kinase still bound, per cent of control",EPHB1 (human),100%
same,residual activity,CDK9 (human),100%
same,residual activity,CDK7 (human),57%
same,"kinase still bound, per cent of control",MAP3K13 (human),100%
same,"kinase still bound, per cent of control",MAP3K2 (human),100%
same,"kinase still bound, per cent of control",[3],100%
same,"kinase still bound, per cent of control",DYRK1B (human),100%
same,"kinase still bound, per cent of control",[4],98%
same,"kinase still bound, per cent of control",STK17B (human),14%
same,"kinase still bound, per cent of control",[5],100%
same,"kinase still bound, per cent of control",MAP3K7 (human),79%
same,"kinase still bound, per cent of control",MAPK12 (human),100%
same,"kinase still bound, per cent of control",[6],89%
same,"kinase still bound, per cent of control",MAP2K5 (human),100%
same,"kinase still bound, per cent of control",TYRO3 (human),100%
same,"kinase still bound, per cent of control",NEK1 (human),91%
same,"kinase still bound, per cent of control",MAP4K2 (human),100%
same,"kinase still bound, per cent of control",EPHA3 (human),100%
